Source: ChEMBL document CHEMBL1201862, “PubChem BioAssay data set” (2004)
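Values below derive from 48-hour exposures of cells grown in 96-well plates, with endpoints linearly interpolated between the two concentrations bracketing the appropriate inhibition level. GI50 marks 50% less growth.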 Active and inactive are the calls of the source. No stated cut-off is given here; in the data, active = GI50 up to about 1.1 µM and inactive = higher.

Assays:
Assay in all cases: inhibition of tumour cell growth, NCI panel, 48 h
[1] = tested on: XF498
[2] = tested on: RXF 631
[3] = tested on: SNB-78
[4] = tested on: DMS-273
[5] = tested on: LXFL 529
[6] = tested on: DLD-1
[7] = tested on: KM-20L2
[8] = tested on: HOP-18

Measured: GI50

CCCCCCCCCCCCCCCCOCC(CP(=O)([O-])OCC[n+]1ccccc1)OC (configuration not stated)
inactive: [1] 12.1 µM | [2] 14.6 µM | [3] 15.9 µM | [4] 2.04 µM | [5] 11.4 µM | [6] 2.81 µM

O=C(c1cccs1)N(C(=S)N1CCN(c2ccccn2)CC1)c1ccccc1
inactive: [7] > 100 µM | [1] 37.5 µM | [3] > 100 µM | [4] 82.8 µM | [5] 39.4 µM | [6] > 100 µM | [8] > 100 µM

C=CCCCN1CCCCC1=S
inactive: [7] > 100 µM | [1] > 100 µM | [2] > 100 µM | [4] > 100 µM | [6] > 100 µM | [8] > 100 µM

C/C(CC(=O)Nc1ccc(C)cc1C)=N/N=C(N)N
inactive: [7] > 100 µM | [1] > 100 µM | [2] > 100 µM | [3] > 100 µM | [4] > 100 µM | [5] > 100 µM | [6] > 100 µM

Cc1cc(=O)n(-c2ccccc2C)c(C)n1
inactive: [7] > 100 µM | [2] > 100 µM | [3] > 100 µM | [4] > 100 µM | [5] > 100 µM | [6] > 100 µM | [8] > 100 µM

O=C(Nc1cc(Cl)ccc1Cl)c1cc2cccc(Cl)c2oc1=O
inactive: [7] > 100 µM | [1] 24 µM | [4] > 100 µM | [6] > 100 µM | [8] 40.2 µM

O=C(c1nc2ccc(Cl)cc2[nH]c1=O)C(O)c1cccc([N+](=O)[O-])c1 (configuration not stated)
inactive: [7] > 100 µM | [1] 9.1 µM | [3] > 100 µM | [4] > 100 µM | [5] > 100 µM | [6] > 100 µM | [8] > 100 µM

CC1=C(C(=O)Nc2ccccc2C)C(c2ccco2)C(C(=O)Nc2ccccc2C)=C(C)N1C
inactive: [1] > 100 µM | [2] 81.5 µM | [3] > 100 µM | [5] > 100 µM | [6] > 100 µM | [8] > 100 µM

COc1ccc(NC(=O)CC(=O)N2N=C(N(CCC#N)c3ccccc3Cl)CC2c2ccccc2)cc1 (configuration not stated)
inactive: [7] > 100 µM | [1] > 100 µM | [2] > 100 µM | [3] > 100 µM | [4] > 100 µM | [5] > 100 µM | [6] > 100 µM | [8] > 100 µM

CC(=O)NC1=C(N)C(=O)c2ccccc2C1=O
inactive: [7] 87.5 µM | [1] > 100 µM | [2] > 100 µM | [3] > 100 µM | [4] > 100 µM | [5] 45 µM | [6] 31.4 µM | [8] > 100 µM

Cn1cnc([N+](=O)[O-])c1Sc1nnc(C(F)(F)F)n1C
inactive: [2] 17.6 µM | [3] 26.2 µM | [4] 25.6 µM | [5] 14.2 µM | [6] 16.4 µM | [8] 19.5 µM

CCc1cccc(C)c1NC(C)=O
inactive: [7] > 100 µM | [1] > 100 µM | [2] > 100 µM | [3] > 100 µM | [4] > 100 µM | [5] > 100 µM | [6] > 100 µM

Cc1cc(Cl)ccc1NC(=O)C1C(=O)N(c2ccc(Cl)cc2C)C(=O)/C1=N\NC(N)=S (configuration not stated)
inactive: [7] 20.7 µM | [2] 45.6 µM | [3] 44 µM | [4] 46.3 µM | [5] 28.7 µM | [6] 35.3 µM | [8] 16.8 µM
